Activity calls are given as the source filed them. The calls are words filed in the database; no cut-off is given here.
Assays:
[1] = tested on: NIH3T3; assay: Inhibition of Rac1 61L mutant-induced cellular transformation in mouse NIH3T3 cells at 5 uM after 3 to 5 weeks; type: cell-based
[2] = tested on: 293T; assay: Effect on interaction between Rac1 15A mutant and human Tiam1 C1199 mutant expressed in 293T cells by Western blot analysis; type: cell-based
[3] = tested on: NIH3T3; assay: Inhibition of lysophosphatidic acid-induced actin stress fibers formation in mouse NIH3T3 cells at 5 uM; type: functional, cell-based
[4] = tested on: NIH3T3; assay: Effect on interaction between Rac1 15A mutant and human Tiam1 C1199 mutant expressed in NIH3T3 cells by Western blot analysis; type: cell-based
[5] = biological target: Cell division control protein 42 homolog (Homo sapiens) (UniProt P60953); assay: Inhibition of Cdc42-PAK-RBD complex formation in platelet derived growth factor-induced human U87MG cells at 50 uM by fluorescence anisotropy; type: cell-based; details: U-87MG ATCC
Chain of Cell division control protein 42 homolog (Homo sapiens) (P60953 whole entry, looked up): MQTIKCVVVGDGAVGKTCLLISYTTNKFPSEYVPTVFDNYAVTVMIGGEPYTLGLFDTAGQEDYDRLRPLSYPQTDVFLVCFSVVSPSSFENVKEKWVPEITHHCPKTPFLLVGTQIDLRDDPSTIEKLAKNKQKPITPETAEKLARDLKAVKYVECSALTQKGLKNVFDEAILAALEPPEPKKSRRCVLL

[6] = tested on: NIH3T3; assay: Inhibition on Tiam1 C1199 mutant-induced focus forming activity in mouse NIH3T3 cells at 5 uM; type: cell-based
[7] = biological target: Cell division control protein 42 homolog (Homo sapiens) (UniProt P60953); assay: Binding affinity at Cdc42 at 1 uM by fluorescence anisotropy
[8] = tested on: NIH3T3; assay: Inhibition on Rac1 61L-induced focus forming activity in mouse NIH3T3 cells at 5 uM; type: cell-based
[9] = biological target: Ras-related C3 botulinum toxin substrate 2 (Homo sapiens) (UniProt P15153); assay: Binding affinity at Rac2 at 1 uM by fluorescence anisotropy
[10] = biological target: Ras-related C3 botulinum toxin substrate 1 (Mus musculus) (UniProt P63001); assay: Effect on Rac1 binding to RhoGDI2 in mouse NIH3T3 cells by Western blot analysis; type: cell-based
[11] = biological target: Cell division control protein 42 homolog (Homo sapiens) (UniProt P60953); assay: Inhibition of platelet derived growth factor-induced endogenous association of Cdc42 with GST-PAK-RBD in human U87MG cells after 5 mins by Western blot analysis; type: cell-based; details: U-87MG ATCC
[12] = biological target: Ras-related C3 botulinum toxin substrate 1 (Mus musculus) (UniProt P63001); assay: Effect on Rac1 binding to RhoGDI1 in mouse NIH3T3 cells by Western blot analysis; type: cell-based
[13] = biological target: Ras-related C3 botulinum toxin substrate 3 (Homo sapiens) (UniProt P60763); assay: Binding affinity at Rac3 at 1 uM by fluorescence anisotropy
[14] = tested on: NIH3T3; assay: Inhibition of platelet derived growth factor-induced lamellipodia formation in mouse NIH3T3 cells at 5 uM; type: functional
[15] = tested on: NIH3T3; assay: Inhibition of Ras-induced cell growth in H-Ras 61L expressing mouse NIH3T3 cells at 5 uM by MTT assay; type: cell-based
[16] = tested on: NIH3T3; assay: Inhibition of H-Ras 61L mutant-induced focus formation in mouse NIH3T3 cells at 5 uM after 14 days; type: cell-based
[17] = tested on: NIH3T3; assay: Inhibition of bradykinin-induced filopodia formation in mouse NIH3T3 cells at 5 uM; type: functional, cell-based
[18] = tested on: U-87 MG; assay: Reduction of RhoA-GTPase level in platelet derived growth factor-induced human U87MG cells measured with GST-rhotekin-RBD by pulldown assay; type: functional, cell-based; details: U-87MG ATCC
[19] = tested on: NIH3T3; assay: Inhibition on Rac1 61L […]-induced focus forming activity in mouse NIH3T3 cells at 5 uM; type: cell-based
[20] = tested on: U-87 MG; assay: Reduction of Rac1-GTPase level in platelet derived growth factor-induced human U87MG cells measured with GST-rhotekin-RBD by pulldown assay; type: functional, cell-based; details: U-87MG ATCC
[21] = tested on: U-87 MG; assay: Reduction of Rac1-GTPase level in platelet derived growth factor-induced human U87MG cells measured with GST-PAK-RBD by pulldown assay; type: functional, cell-based; details: U-87MG ATCC
[22] = tested on: U-87 MG; assay: Reduction of RhoA-GTPase level in platelet derived growth factor-induced human U87MG cells measured with GST-PAK-RBD by pulldown assay; type: functional, cell-based; details: U-87MG ATCC
[23] = tested on: U-87 MG; assay: Reduction of Cdc42-GTPase level in platelet derived growth factor-induced human U87MG cells measured with GST-PAK-RBD by pulldown assay; type: functional, cell-based; details: U-87MG ATCC
[24] = tested on: U-87 MG; assay: Reduction of Cdc42-GTPase level in platelet derived growth factor-induced human U87MG cells measured with GST-rhotekin-RBD by pulldown assay; type: functional, cell-based; details: U-87MG ATCC

## CCN(CC)CCCC(C)Nc1nc(C)cc(Nc2ccc3nc(C)cc(N)c3c2)n1 (stereo unspecified)
[1]
  Activity: inactive

## O=c1cc(CN2CCOCC2)occ1OCCCCCSc1ccnc2cc(C(F)(F)F)ccc12
[1]
  Activity: Active
[2]
  Activity: inactive
[3]
  Activity: Active
[4]
  Activity: inactive
[5]
  Activity: inactive
[6]
  Activity: Active
[7]
  Activity: inactive
[8]
  inhibition: 80%
[9]
  Activity: Active
[10]
  Activity: Active
[11]
  Activity: inactive
[12]
  Activity: Active
[13]
  Activity: Active
[14]
  inhibition at 5 µM: 80%
[15]
  Activity: Active
[16]
  Activity: inactive
[17]
  Activity: Active
[18]
  Activity: Active
[19]
  Activity: inactive

## O=c1cc(CN2CCNCC2)occ1OCCCCCSc1ccnc2cc(C(F)(F)F)ccc12
[20]
  Activity: inactive
[21]
  Activity: inactive
[22]
  Activity: inactive
[23]
  Activity: inactive
[24]
  Activity: inactive
[18]
  Activity: inactive
